Patent US7662780B2, “Administering hypocretin to obese individuals” (The Regents of the University of California, priority 2003, dated 2010)
Where no end group is shown, it is not given here.

Key:
[1] = Motor activity (actigraph) after Hcrt-1 injection; type: in vivo
Method: FIG. 1. Acute changes in motor activity after Hcrt-1 administration. (a) A representative actigraph record (5 minute bins) showing the activity level during the 2 hr period following Hcrt-1 (3 μg/kg) and normal saline. Hcrt-1 produced an increase in motor activity within 5 minutes of injection that persisted for 60 minutes. […] In (b) values are mean±SE, *p<0.05; **p<0.01, Newman-Keuls test.
The motor or muscular activity level of the individual can be measured by a variety of means. Motor activity levels may be directly observed and measured by clinicians, or the individual may themselves measure their activity level which typically includes body movement or locomotion. The monitoring can include maintaining a log of activity, including intensity and duration of the activity. An actigraph device, or activity monitor, may be used. An actigraph detects activity by sensing motion via an internal accelerometer. It is a small lightweight instrument that can be worn, for example, on the wrist, waist, or ankle to record physical activity. Actigraphs are often used to estimate energy expenditure or to study motion in an individual, as described in Example 4 and shown in FIG. 1.
The differences in amplitude of motor activity following hypocretin and saline injection diminished over the following 60 minutes (FIGS. 1a, 1b).

[2] = Hypocretin via ventricular injection (osmotic minipump): running wheel activity and body weight; type: in vivo, rat; details: third ventricle minipump, about 0.03 to about 600 μg/kg/day, vs control and untreated animals
Excerpt: The effect of hypocretin administration on the body weight of a normal rat or other rodent is investigated. The study includes ten animals in the experimental group, ten animals in the control group, and ten animals in the untreated group. […] Animals in the experimental and control groups are fitted with an Alzet Model 2004 osmotic minipump (Alza). The minipump delivers solution to the third ventricle of the brain, adjacent to the hypothalamus, for a one to six month period. The experimental group receives hypocretin peptide continuously at dosing regimes of about 0.03 μg/kg/day to about 600 μg/kg/day. The control group receives diluent. Animals in all groups are provided with a running wheel and customary rat chow is available ad libitum. Each animal is weighed daily (or another sign of excess body weight is measured), and the running wheel activity for each animal is recorded.

[3] = Hypocretin via jugular catheter/osmotic minipump: running wheel activity and body weight; type: in vivo, rats; details: about 0.03 to about 600 μg/kg/day, vs control and untreated animals
Method: The effect of administration of hypocretin-1 or other agonists of the hypocretin receptors on rats is investigated. The study includes ten animals in the experimental group, ten animals in the control group, and ten animals in the untreated group. […] Animals in the experimental and control groups receive a jugular catheter implant attached to an osmotic minipump. The experimental group receives hypocretin-1 or other agonist at dosing regimes of about 0.03 μg/kg/day to about 600 μg/kg/day. The control group receives diluent. Animals in all groups are provided with a running wheel and customary rat chow is available ad libitum. Each animal is weighed daily (or another sign of excess body weight is measured), and the running wheel activity for each animal is recorded.

[4] = Activity of hypocretin in obese humans: wrist actigraph and body weight; type: in vivo; details: about 0.03 to about 600 μg/kg/day for four weeks, vs placebo control group
Excerpt: Hypocretin or hypocretin agonist is submitted to safety testing following usual Food and Drug Administration (FDA) requirements. Afterward, the effect of administration of hypocretin or hypocretin agonist on obese humans is investigated. The study includes ten humans in the experimental group and ten humans in the control group. Humans in the experimental and control groups receive administration by intranasal inhalant, or by transdermal or other means. The experimental group receives hypocretin or hypocretin agonist at dosing regimes of about 0.03 μg/kg/day to about 600 μg/kg/day for a period of four weeks. The control group receives a placebo. Activity levels of the humans in both groups are measured with a wrist actigraph, and each human is weighed daily (or another sign of excess body weight is measured).
Each animal is weighed daily, and the running wheel activity for each animal is recorded.

Hcrt-1 antiserum = assay: Solid-phase radioimmunoassay (RIA) for Hcrt-1; type: binding; details: competition with 125I-labeled Hcrt-1 for immobilized antiserum
Method: FIG. 2. The protocol for a sequential multiple antigen radioimmunoassay for hypocretin-1 (Hcrt-1) and hypocretin-2 (Hcrt-2). Sample or standard is loaded into wells onto which antiserum for Hcrt-1 has been pre-adsorbed via protein-A Subsequently, radiolabeled Hcrt-1 (Hcrt-1*) is added to the wells. Competition for the antiserum then ensues between Hcrt-1 and Hcrt-1*. The contents of the wells are then transferred to new wells onto which antiserum for Hcrt-2 has been preadsorbed and the procedure repeated but with radiolabeled Hcrt-2 (Hcrt-2*). The previous wells are washed and counted for bound radioactivity. […]
Furthermore, sensitivity is increased over that obtained with more traditional methods using identical antibodies and assay volumes. […] For example, the individual wells of a 96-well plate containing Ab-bound tracer peptide are then physically separated and counted in a gamma counter. […]
The Hcrt-1, iodinated Hcrt-1, and Hcrt-1 antiserum were obtained from Phoenix Pharmaceuticals, Inc. (530 Harbor Blvd, Belmont, Calif.). […] This enables direct reading of radioactivity in a Top Count plate reader (Packard) without the requirement to separate out individual wells. […]
Prior to RIA, Hcrt-1 is extracted from the CSF or plasma sample. […] The eluant is then dried down and re-suspended in RIA buffer ready for assay. […]

[5] = Hcrt-1 3 μg/kg vs normal saline, actigraph record

Row | Substance | motor activity ([1]; first 30 minutes after injection, vs saline injection) | running wheel activity [2] | weight gain [2] | running wheel activity [3] | weight gain [3] | activity levels (wrist actigraph) [4] | weight loss [4] | increase of motor activity as compared to saline control ([1]; 0-30 and 30-60 minutes after administration, Newman-Keuls test) | onset of increase in motor activity after injection [1, 5] [min] | persistence of increase in motor activity [1, 5] [min] | IC50 value for this Hcrt-1 assay (Hcrt-1 antiserum) [fmol]
1 | hypocretin | increased motor activity | increased running wheel activity | decreased weight gain | increased running wheel activity | decreased weight gain | increased activity levels | greater weight loss | – | – | – | –
2 | hypocretin-1 (QPLPDCCRQKTCSCRLYELLHGAGNHAAGILTL; ends and bridges not checked; cysteine pairing not given here; UniProt O43612 34-66, looked up) [Hcrt-1, hypocretin neuropeptide derived from prepro-hypocretin; human orexin-A is reported as a 33 residue peptide of 3562 Da] | – | – | – | – | – | – | – | statistically significant | ≤ 5 | 60 | 2
